Measured values taken from patent US20110081315A1, “NOVEL MACROCYCLIC INHIBITORS OF HEPATITIS C VIRUS REPLICATION” (INTERMUNE, INC., priority 2009, published 2011).
Where two headings read alike, the source gives them in different places.

Experiments:
NS3/NS4 complexes = NS3/NS4 complexes (Hepatitis C virus genotype 1a, UniProt P27958); assay: NS3/NS4 inhibition assay (IC50); format: biochemical; details: NS3/NS4 activity; 23° C., 25 μM NS4A peptide
Text: (§1) NS3-NS4 inhibition activity can be determined using known assay methods. For example, NS3/NS4 complexes may be formed and inhibitory concentrations of test compounds determined as described in U.S. Patent Application Publication Number 2007/0054842 paragraph numbers 1497-1509, which is incorporated herein by reference in its entirety. Similarly, hepatitis C replicon EC50 may be determined using known assay methods such as described in U.S. Patent Application Publication Number 2007/0054842 paragraph numbers 1510-1515, which is incorporated herein by reference in its entirety. Assays may be conducted at ambient temperature (23° C.) in assay buffer containing 50 mM Tris-HCl, pH 7.5, 15% glycerol, 0.6 mM Lauryldimethylamine Oxide (LDAO), 25 μM NS4A peptide, and 10 mM Dithiothreitol (DTT).

hepatitis C replicon = hepatitis C replicon EC50 assay; format: cell-based; details: Hepatitis C virus
Text: as §1

[1] = hepatitis C replicon, read-out: EC50

NS3/NS4 complexes, sequence (P27958 1027-1657, one chain of several): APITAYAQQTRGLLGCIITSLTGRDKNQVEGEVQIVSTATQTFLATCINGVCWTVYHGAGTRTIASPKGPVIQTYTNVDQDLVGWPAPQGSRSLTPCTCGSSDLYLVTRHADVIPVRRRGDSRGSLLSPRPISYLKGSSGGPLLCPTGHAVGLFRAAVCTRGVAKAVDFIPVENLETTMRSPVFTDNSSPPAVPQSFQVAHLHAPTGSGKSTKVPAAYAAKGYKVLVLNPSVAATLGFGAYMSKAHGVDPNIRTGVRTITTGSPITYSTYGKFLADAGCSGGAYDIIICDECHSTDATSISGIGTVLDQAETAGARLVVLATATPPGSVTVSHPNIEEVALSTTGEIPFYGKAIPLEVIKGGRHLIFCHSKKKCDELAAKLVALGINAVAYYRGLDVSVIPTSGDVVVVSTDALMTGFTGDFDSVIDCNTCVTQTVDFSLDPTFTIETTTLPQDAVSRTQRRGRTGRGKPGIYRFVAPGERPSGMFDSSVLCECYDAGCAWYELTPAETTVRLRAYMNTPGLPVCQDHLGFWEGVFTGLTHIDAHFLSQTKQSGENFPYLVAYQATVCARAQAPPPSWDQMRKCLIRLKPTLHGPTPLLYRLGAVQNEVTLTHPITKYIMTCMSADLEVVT

Compound	IC50 (NS3/NS4 complexes) [nM]	EC50 (hepatitis C replicon; [1]) [nM]	EC50 (hepatitis C replicon) [nM]
COc1ccc2c(O[C@@H]3C[C@H]4C(=O)N[C@]5(C(=O)NS(=O)(=O)C6(C)CC6)C[C@H]5/C=C\CCCCC[C@H](Nc5ccc(F)c(OC(F)(F)F)c5)C(=O)N4C3)cc(-c3nc(C(C)C)cs3)nc2c1C (single isomer, unassigned) [Compound 601]	< 10	< 10	
COc1ccc2c(O[C@@H]3C[C@H]4C(=O)N[C@]5(C(=O)NS(=O)(=O)C6(C)CC6)C[C@H]5/C=C\CCCCC[C@H](Nc5ccc(OC(F)(F)F)c(F)c5)C(=O)N4C3)cc(-c3nc(C(C)C)cs3)nc2c1C (single isomer, unassigned) [Compound 602]	< 10	10 to 100	
COc1ccc2c(O[C@@H]3C[C@H]4C(=O)N[C@]5(C(=O)NS(=O)(=O)C6(C)CC6)C[C@H]5/C=C\CCCCC[C@H](Nc5ccc(N)cc5)C(=O)N4C3)cc(-c3nc(C(C)C)cs3)nc2c1C [Compound 101]	< 10		10 to 100
COc1ccc2c(O[C@@H]3C[C@H]4C(=O)N[C@]5(C(=O)NS(=O)(=O)C6(C)CC6)C[C@H]5/C=C\CCCCC[C@H](Nc5cccc(N)c5)C(=O)N4C3)cc(-c3nc(C(C)C)cs3)nc2c1C [Compound 102]	< 10		< 10
COc1ccc2c(O[C@@H]3C[C@H]4C(=O)N[C@]5(C(=O)NS(=O)(=O)C6(C)CC6)C[C@H]5/C=C\CCCCC[C@H](Nc5cccc(C(=O)O)c5)C(=O)N4C3)cc(-c3nc(C(C)C)cs3)nc2c1C [Compound 103]	< 10	< 10	
COc1ccc2c(O[C@@H]3C[C@H]4C(=O)N[C@]5(C(=O)NS(=O)(=O)C6(C)CC6)C[C@H]5/C=C\CCCCC[C@H](Nc5cccc(C(=O)N6CCN(C)CC6)c5)C(=O)N4C3)cc(-c3nc(C(C)C)cs3)nc2c1C [Compound 104]	< 10	< 10	
COc1ccc2c(O[C@@H]3C[C@H]4C(=O)N[C@]5(C(=O)NS(=O)(=O)C6(C)CC6)C[C@H]5/C=C\CCCCC[C@H](Nc5cccc(C(=O)N6CCOCC6)c5)C(=O)N4C3)cc(-c3nc(C(C)C)cs3)nc2c1C [Compound 105]	< 10	< 10	
COc1ccc2c(O[C@@H]3C[C@H]4C(=O)N[C@]5(C(=O)NS(=O)(=O)C6(C)CC6)C[C@H]5/C=C\CCCCC[C@H](Nc5cccc(C(=O)N6CC(C)OC(C)C6)c5)C(=O)N4C3)cc(-c3nc(C(C)C)cs3)nc2c1C (some centres unmarked) [Compound 106]	< 10	< 10	
COc1ccc2c(O[C@@H]3C[C@H]4C(=O)N[C@]5(C(=O)NS(=O)(=O)C6(C)CC6)C[C@H]5/C=C\CCCCC[C@H](Nc5cccc(C(=O)N6CCNCC6)c5)C(=O)N4C3)cc(-c3nc(C(C)C)cs3)nc2c1C [Compound 107]	< 10	< 10	
CCOC(=O)N1CCN(C(=O)c2cccc(N[C@H]3CCCCC/C=C\[C@@H]4C[C@@]4(C(=O)NS(=O)(=O)C4(C)CC4)NC(=O)[C@@H]4C[C@@H](Oc5cc(-c6nc(C(C)C)cs6)nc6c(C)c(OC)ccc56)CN4C3=O)c2)CC1 [Compound 108]	< 10	< 10	
COc1ccc2c(O[C@@H]3C[C@H]4C(=O)N[C@]5(C(=O)NS(=O)(=O)C6(C)CC6)C[C@H]5/C=C\CCCCC[C@H](Nc5cccc(C(=O)N6CCOC(C)C6)c5)C(=O)N4C3)cc(-c3nc(C(C)C)cs3)nc2c1C (some centres unmarked) [Compound 109]	< 10	< 10	
COc1ccc2c(O[C@@H]3C[C@H]4C(=O)N[C@]5(C(=O)NS(=O)(=O)C6(C)CC6)C[C@H]5/C=C\CCCCC[C@H](Nc5cccc(C(=O)N6CCN(CCN(C)C)CC6)c5)C(=O)N4C3)cc(-c3nc(C(C)C)cs3)nc2c1C [Compound 111]	< 10	< 10	
CC(C)c1csc(-c2cccc3c2nc(O[C@@H]2C[C@H]4C(=O)N[C@]5(C(=O)NS(=O)(=O)C6(C)CC6)C[C@H]5/C=C\CCCCC[C@H](NC(=O)OC5C[C@@H]6C[C@@H]6C5)C(=O)N4C2)n3C(C)C)n1 (some centres unmarked) [Compound 1411]		10 to 100	
CC(C)n1c(O[C@@H]2C[C@H]3C(=O)N[C@]4(C(=O)NS(=O)(=O)N(C)C)C[C@H]4/C=C\CCCCC[C@H](NC(=O)OC(C)(C)C)C(=O)N3C2)nc2c(-c3cccnc3)cccc21 [Compound 1738]		< 10	
